# Data: patent US20250340563A1, “FUSED PYRIDAZINE DERIVATIVES AS NLRP3 INHIBITORS” (Takeda Pharmaceutical Company Limited, priority 2022, published 2025)
# Biological target: NLRP3 inflammasome (Homo sapiens, UniProt Q96P20)
# Assay: IL-1β assay in IFN-γ-differentiated, LPS-primed, ATP-activated THP-1 cells (ELISA)
# Type: cell-based
# Settings: 50 ng/mL LPS priming, 2.5 mM ATP activation, 2 hours
# Protocol: Monocytic THP-1 cells (ATCC: TIB-202) are maintained in accordance with the provider's instructions in RPMI media (Life Technologies, Cat #A10491-01); RPMI is supplemented with 10% heat inactivated fetal bovine serum (Hyclone Cat #SH30396.03). The cells are differentiated into macrophages by the addition of 25 ng/mL IFN-7 (PeproTech, Cat #300-02-100UG) for 24 hours at 37° C./5% CO2. Media is exchanged with fresh media with no FBS, and the cells are treated with 50 ng/mL LPS (priming step) for 24 hours at 37° C./5% CO2 (LPS-EK: Invivogen, Cat #tlrl-peklps). Media is exchanged with fresh media with no FBS. The cells are plated at 40,000 cells per well in 384-well flat-bottom cell culture plates (Costar 3764) containing compounds (added in 1:1000) in a 1:3.16 serial dilution series in DMSO and are incubated for 30 minutes at 37° C./5% CO2. The NLRP3 inflammasome is activated with the addition of 2.5 mM ATP (Sigma Cat #A3377) and the cells are incubated for 2 hours at 37° C./5% CO2. At the end of the incubation period, 40 μL supernatant is removed, and […] are monitored using an ELISA (Human […], R&D systems, Cat #DY201) in accordance with the manufacturer's instructions.
# The IC50 values are calculated from a plot of percentage of inhibition versus the inhibitor concentration by a logistics curve fit according to: Y=[Bottom+(Top−Bottom)]/(1+10^[(Log IC50−X)·Hill Slope], where Y is the % inhibition at the inhibitor concentration, X, “Bottom” is the lowest inhibition value, i.e. 0%, “Top” is the maximum inhibition value, i.e. 100%, and the “Hill Slope” describes the slope of the sigmoidal curve between the “Bottom” and “Top” values. The curve fitting was conducted with internally developed software.
# Chain of NLRP3 inflammasome (Q96P20 whole entry): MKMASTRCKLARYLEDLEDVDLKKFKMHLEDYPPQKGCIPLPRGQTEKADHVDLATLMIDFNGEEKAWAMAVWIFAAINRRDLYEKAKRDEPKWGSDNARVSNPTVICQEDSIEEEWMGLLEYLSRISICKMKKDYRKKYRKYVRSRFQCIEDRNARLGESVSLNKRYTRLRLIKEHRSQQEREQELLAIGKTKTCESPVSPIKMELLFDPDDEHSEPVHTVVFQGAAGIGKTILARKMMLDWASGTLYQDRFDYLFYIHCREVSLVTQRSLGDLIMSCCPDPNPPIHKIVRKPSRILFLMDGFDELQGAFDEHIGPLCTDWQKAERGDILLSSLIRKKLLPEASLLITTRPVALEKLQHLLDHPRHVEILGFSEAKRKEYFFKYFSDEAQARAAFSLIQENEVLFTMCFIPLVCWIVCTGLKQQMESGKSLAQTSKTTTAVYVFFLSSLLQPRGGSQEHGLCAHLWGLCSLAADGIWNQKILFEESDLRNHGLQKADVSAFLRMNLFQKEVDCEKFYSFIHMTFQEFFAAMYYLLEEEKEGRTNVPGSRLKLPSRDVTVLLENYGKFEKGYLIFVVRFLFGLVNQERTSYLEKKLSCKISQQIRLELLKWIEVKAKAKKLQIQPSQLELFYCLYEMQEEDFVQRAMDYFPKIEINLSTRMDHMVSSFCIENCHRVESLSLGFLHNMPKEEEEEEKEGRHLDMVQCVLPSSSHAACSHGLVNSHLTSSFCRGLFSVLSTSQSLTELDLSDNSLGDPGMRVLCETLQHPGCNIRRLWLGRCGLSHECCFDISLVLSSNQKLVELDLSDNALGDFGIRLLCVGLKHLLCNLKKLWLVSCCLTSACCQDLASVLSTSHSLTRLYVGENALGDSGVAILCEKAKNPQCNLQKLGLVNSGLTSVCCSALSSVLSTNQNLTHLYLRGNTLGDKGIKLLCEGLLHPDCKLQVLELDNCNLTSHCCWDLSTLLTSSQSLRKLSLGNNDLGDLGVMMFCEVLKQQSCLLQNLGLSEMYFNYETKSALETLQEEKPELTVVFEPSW
row,IC50 [nM],Structure (SMILES)
1,1230,O[C@]1(C(F)(F)F)CCC[C@@H](Nc2nnc(-c3ccc(Cl)cc3)c3ccccc23)C1 (racemic) [Example 114]
2,5250,"CN1CCCC(Nc2nnc(-c3ccc(C(F)F)nc3)c3ccccc23)C1 (stereo not drawn) [Example 2, 4-(6-(difluoromethyl)pyridin-3-yl)-N-(1-methylpiperidin-3-yl)phthalazin-1-amine]"
3,1120,"CC1(c2ccc(-c3nnc(Nc4cccc(O)c4)c4ccccc34)cc2)CC1 [Example 3, 3-((4-(4-(1-methylcyclopropyl)phenyl)phthalazin-1-yl)amino)phenol]"
4,1410,"Oc1cccc(Nc2nnc(-c3ccc(C4(C(F)(F)F)CC4)cc3)c3ccccc23)c1 [Example 4, 3-((4-(4-(1-(trifluoromethyl)cyclopropyl)phenyl)phthalazin-1-yl)amino)phenol]"
5,1440,"CC(C)(C)c1ccc(-c2nnc(Nc3cccc(O)c3)c3ccccc23)cc1 [Example 5, 3-((4-(4-(tert-butyl)phenyl)phthalazin-1-yl)amino)phenol]"
6,2880,"Oc1cccc(Nc2nnc(-c3cccc(C4CCC4)c3)c3ccccc23)c1 [Example 6, 3-((4-(3-cyclobutylphenyl)phthalazin-1-yl)amino)phenol]"
7,977,"CC(C)c1ccc(-c2nnc(Nc3cccc(O)c3)c3ccccc23)cc1 [Example 7, 3-((4-(4-isopropylphenyl)phthalazin-1-yl)amino)phenol]"
8,891,"Oc1cccc(Nc2nnc(-c3ccc(C4CC4)cc3F)c3ccccc23)c1 [Example 8, 3-((4-(4-cyclopropyl-2-fluorophenyl)phthalazin-1-yl)amino)phenol]"
9,1660,"CC(C)(C)c1ccc(-c2nnc(Nc3cccc(O)c3)c3ccccc23)cn1 [Example 9, 3-((4-(6-(tert-butyl)pyridin-3-yl)phthalazin-1-yl)amino)phenol]"
10,437,"Oc1cccc(Nc2nnc(-c3cccc(C4CC4)c3)c3ccccc23)c1 [Example 10, 3-((4-(3-cyclopropylphenyl)phthalazin-1-yl)amino)phenol]"
11,933,"CN1CCCC(Nc2nnc(-c3ccc(F)cc3)c3ccccc23)C1 (stereo not drawn) [Example 11, 4-(4-fluorophenyl)-N-(1-methylpiperidin-3-yl)phthalazin-1-amine]"
12,2570,"Cc1ccccc1-c1nnc(NC2CCCN(C)C2)c2ccccc12 (stereo not drawn) [Example 12, N-(1-methylpiperidin-3-yl)-4-(o-tolyl)phthalazin-1-amine]"
13,65,"CN1CCCC(Nc2nnc(-c3ccc(C(F)(F)F)cc3)c3ccccc23)C1 (stereo not drawn) [Example 13, N-(1-methylpiperidin-3-yl)-4-(4-(trifluoromethyl)phenyl)phthalazin-1-amine]"
14,2950,"CN1CCCC(Nc2nnc(-c3ccccc3Cl)c3ccccc23)C1 (stereo not drawn) [Example 14, 4-(2-chlorophenyl)-N-(1-methylpiperidin-3-yl)phthalazin-1-amine]"
15,115,"Cc1ccc(-c2nnc(NC3CCCN(C)C3)c3ccccc23)cc1 (stereo not drawn) [Example 15, N-(1-methylpiperidin-3-yl)-4-(p-tolyl)phthalazin-1-amine]"
16,4470,"CN1CCCC(Nc2nnc(-c3cccc(Cl)c3)c3ccccc23)C1 (stereo not drawn) [Example 17, 4-(3-chlorophenyl)-N-(1-methylpiperidin-3-yl)phthalazin-1-amine]"
17,1150,"Cc1cccc(-c2nnc(NC3CCCN(C)C3)c3ccccc23)c1 (stereo not drawn) [Example 18, N-(1-methylpiperidin-3-yl)-4-(m-tolyl)phthalazin-1-amine]"
18,626,"CN1CCCC(Nc2nnc(-c3ccc(C(C)(C)C)nc3)c3ccccc23)C1 (stereo not drawn) [Example 20, 4-(6-(tert-butyl)pyridin-3-yl)-N-(1-methylpiperidin-3-yl)phthalazin-1-amine]"
19,897,"CN1CCCC(Nc2nnc(-c3ccc(C(F)(F)F)nc3)c3ccccc23)C1 (stereo not drawn) [Example 22, N-(1-methylpiperidin-3-yl)-4-(6-(trifluoromethyl)pyridin-3-yl)phthalazin-1-amine]"
20,10000,"CN1CCC[C@@H](Nc2nnc(-c3ccc(O)cc3)c3ccncc23)C1 [Example 23, (R)-4-(4-((1-methylpiperidin-3-yl)amino)pyrido[3,4-d]pyridazin-1-yl)phenol]"

row,IC50 [nM],Structure (SMILES)
1,157,"CN1CCC[C@@H](Nc2nnc(-c3ccc(OC(F)(F)F)c(C#N)c3)c3ccncc23)C1 [Example 24, (R)-5-(4-((1-methylpiperidin-3-yl)amino)pyrido[3,4-d]pyridazin-1-yl)-2-(trifluoromethoxy)benzonitrile]"
2,199,"COc1ccc(-c2nnc(N[C@@H]3CCCN(C)C3)c3cnccc23)cc1F [Example 25, (R)-1-(3-fluoro-4-methoxyphenyl)-N-(1-methylpiperidin-3-yl)pyrido[3,4-d]pyridazin-4-amine]"
3,603,"CN1CCC[C@@H](Nc2nnc(-c3ccc4c(c3)OCCO4)c3ccncc23)C1 [Example 26, (R)-1-(2,3-dihydrobenzo[b][1,4]dioxin-6-yl)-N-(1-methylpiperidin-3-yl)pyrido[3,4-d]pyridazin-4-amine]"
4,38,"CN1CCC[C@@H](Nc2nnc(-c3ccc(OC(F)F)cc3)c3ccncc23)C1 [Example 27, (R)-1-(4-(difluoromethoxy)phenyl)-N-(1-methylpiperidin-3-yl)pyrido[3,4-d]pyridazin-4-amine]"
5,34,"Cc1cc(Cl)ccc1-c1nnc(N[C@@H]2CCCN(C)C2)c2cnccc12 [Example 31, (R)-1-(4-chloro-2-methylphenyl)-N-(1-methylpiperidin-3-yl)pyrido[3,4-d]pyridazin-4-amine]"
6,36,"CN1CCC[C@@H](Nc2nnc(-c3ccc(OC(F)(F)F)cc3)c3ccncc23)C1 [Example 32, (R)—N-(1-methylpiperidin-3-yl)-1-(4-(trifluoromethoxy)phenyl)pyrido[3,4-d]pyridazin-4-amine]"
7,33,"CN1CCC[C@@H](Nc2nnc(-c3ccc(C(F)(F)F)cc3F)c3ccncc23)C1 [Example 33, (R)-1-(2-fluoro-4-(trifluoromethyl)phenyl)-N-(1-methylpiperidin-3-yl)pyrido[3,4-d]pyridazin-4-amine]"
8,28,"CN1CCC[C@@H](Nc2nnc(-c3ccc(C(F)(F)F)cc3)c3ccncc23)C1 [Example 34, (R)—N-(1-methylpiperidin-3-yl)-1-(4-(trifluoromethyl)phenyl)pyrido[3,4-d]pyridazin-4-amine]"
9,77,"CN1CCC[C@@H](Nc2nnc(-c3ccc(C(F)F)cc3)c3ccncc23)C1 [Example 37, (R)-1-(4-(difluoromethyl)phenyl)-N-(1-methylpiperidin-3-yl)pyrido[3,4-d]pyridazin-4-amine]"
10,1120,"Cc1ccc(-c2nnc(Nc3cccc(O)c3)c3ccccc23)cc1 [Example 38, 3-((4-(p-tolyl)phthalazin-1-yl)amino)phenol]"
11,1150,"CN1CCCC(Nc2nnc(-c3ccccc3)c3ccccc23)C1 (stereo not drawn) [Example 42, N-(1-methylpiperidin-3-yl)-4-phenylphthalazin-1-amine]"
12,4120,"COc1ccc(-c2nnc(N(C)C3CCCN(C)C3)c3ccccc23)cc1 (stereo not drawn) [Example 45, 4-(4-methoxyphenyl)-N-methyl-N-(1-methylpiperidin-3-yl)phthalazin-1-amine]"
13,692,"COc1cc(Cl)ccc1-c1nnc(NC2CCCN(C)C2)c2cnccc12 (stereo not drawn) [Example 47, 1-(4-chloro-2-methoxyphenyl)-N-(1-methylpiperidin-3-yl)pyrido[3,4-d]pyridazin-4-amine]"
14,3090,"COc1cc(Cl)ccc1-c1nnc(NC2CCCN(C)C2)c2ccncc12 (stereo not drawn) [Example 48, 4-(4-chloro-2-methoxyphenyl)-N-(1-methylpiperidin-3-yl)pyrido[3,4-d]pyridazin-1-amine]"
15,288,"Cc1cc(Cl)ccc1-c1nnc(NC2CCCN(C)C2)c2cnccc12 (stereo not drawn) [Example 49, 1-(4-chloro-2-methylphenyl)-N-(1-methylpiperidin-3-yl)pyrido[3,4-d]pyridazin-4-amine]"
16,1320,"Cc1cc(Cl)ccc1-c1nnc(NC2CCCN(C)C2)c2ccncc12 (stereo not drawn) [Example 50, 4-(4-chloro-2-methylphenyl)-N-(1-methylpiperidin-3-yl)pyrido[3,4-d]pyridazin-1-amine]"
17,158,"CN1CCCC(Nc2nnc(-c3ccc(Cl)cc3Cl)c3ccncc23)C1 (stereo not drawn) [Example 51, 1-(2,4-dichlorophenyl)-N-(1-methylpiperidin-3-yl)pyrido[3,4-d]pyridazin-4-amine]"
18,2400,"CN1CCCC(Nc2nnc(-c3ccc(Cl)cc3Cl)c3cnccc23)C1 (stereo not drawn) [Example 52, 4-(2,4-dichlorophenyl)-N-(1-methylpiperidin-3-yl)pyrido[3,4-d]pyridazin-1-amine]"
19,40,"COc1ccc(-c2nnc(N[C@@H]3CCCN(C)C3)c3ccccc23)c(F)c1 [Example 53, (R)-4-(2-fluoro-4-methoxyphenyl)-N-(1-methylpiperidin-3-yl)phthalazin-1-amine]"
